In brackets after ≈: the same amount, converted by molar mass. Read-outs that look alike come from different tables or passages of the source. Bridge positions count the residues as written; N and C are the ends. Square brackets hold non-standard residues; d marks the D form. Peptide text beside a SMILES is read from it. * marks the point of attachment. Fluorescein(5-Mal) = O=C1OC2(c3ccc(O)cc3Oc3cc(O)ccc32)c2ccc(N3C(=O)CC(*)C3=O)cc21; Ileψ(thiazoline)Cys = CC[C@H](C)[C@H](N)C1=N[C@H](C(=O)*)CS1; Succinimide(1-Et,3-yl) = CCN1C(=O)CC(*)C1=O; dOrn = NCCC[C@@H](N)C(=O)O
Key:
type I pili = type I pili (Escherichia coli, UniProt P08191)
type I pili, sequence (P08191 22-300): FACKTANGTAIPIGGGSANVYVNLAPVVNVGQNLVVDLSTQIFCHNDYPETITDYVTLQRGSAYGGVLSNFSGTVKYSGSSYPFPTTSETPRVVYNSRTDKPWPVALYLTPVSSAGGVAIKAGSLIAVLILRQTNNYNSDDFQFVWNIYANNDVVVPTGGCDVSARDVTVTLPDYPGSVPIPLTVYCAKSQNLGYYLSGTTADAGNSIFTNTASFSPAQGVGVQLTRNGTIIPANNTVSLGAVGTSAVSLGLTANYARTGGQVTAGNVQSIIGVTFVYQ
type I pili, sequence (P08190 24-167 partner): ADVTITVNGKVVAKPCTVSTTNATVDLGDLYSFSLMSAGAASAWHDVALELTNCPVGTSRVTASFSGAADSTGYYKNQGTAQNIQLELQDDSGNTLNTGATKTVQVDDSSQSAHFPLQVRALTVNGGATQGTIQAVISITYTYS
type I pili, sequence (P08189 23-176 partner limits assumed): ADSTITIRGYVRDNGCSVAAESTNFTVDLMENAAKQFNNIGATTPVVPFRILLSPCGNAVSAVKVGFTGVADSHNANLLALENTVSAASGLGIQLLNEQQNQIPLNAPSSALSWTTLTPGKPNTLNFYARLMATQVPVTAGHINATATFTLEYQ
type I pili, sequence (P04128 24-182 partner): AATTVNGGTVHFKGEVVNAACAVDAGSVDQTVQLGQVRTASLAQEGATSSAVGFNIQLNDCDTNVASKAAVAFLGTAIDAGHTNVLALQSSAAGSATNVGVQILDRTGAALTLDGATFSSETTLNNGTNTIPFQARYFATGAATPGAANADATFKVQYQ

S. aureus = assay: MIC testing against S. aureus; format: cell-based, Staph. aureus; conditions: for activity against S. aureus (in words): controls at concentrations used in the derivatization
Experimental: 1.5 ml fractions were collected. The fractions in the void volume were pooled and sterile filtered. The activity of the conjugate was determined by standard MIC testing against S. aureus.

[1] = tested on: Staphylococcus epidermidis; assay: MIC and MBC; format: cell-based
E. coli H16 [2] = tested on: E. coli H16
[3] = tested on: J5 bacteria phagocytosed by J774A.1 mouse macrophage cell line; format: cell-based
E. coli H16 [4] = format: cell-based; conditions: for BDA: Table 42
Salmonella 34576 = conditions: Table 43
E. coli = assay: MIC assays, summary of modified PMB's; conditions: relative to PMB
Experimental: The MIC assays were performed as follows. Bacteria were grown overnight on TSB (Trypticase Soy Broth) plates at 37 degrees, and bacteria resuspended in sterile PBS to equal a #1 McFarland suspension. The suspension is diluted in TSB to a concentration of 5×10^5 organisms/ml. This diluted sample is the innoculum. Serial 2 fold dilutions of the conjugate to be tested are made in TSB (0.5 ml final volume of each dilution) in polystyrene tubes. 0.5 ml bacterial innoculum was added to each dilution tube. The conjugate concentrations are thus 2× the final concentration to be tested. Control tubes containing TSB alone, antimicrobial agent alone, and innoculum alone are also set. The tubes are vortexed and grown overnight in 37 degree incubator. […] Where two numbers are shown, the second number is the MIC of free PMB determined in the same experiment.

[5] = concentration expressed as absorbance at 280 nm
[6] = Table 40, first number of the cell

Compound: N[C@@H](Cc1ccccc1)C(=O)Nc1ccc(O[C@H]2O[C@H](CO)[C@@H](O)[C@H](O)[C@@H]2O)cc1 [4-(N-phenylalanyl)-aminophenyl-α-D-mannopyranoside]
- activity relative to methyl α-mannopyranoside (type I pili): approximately 1000 fold

Compound: CC(=O)OCC1=C(C(=O)O)N2C(=O)[C@@H](N)[C@H]2SC1 [7-aminocephalosporanic acid]
- MIC (S. aureus; [5]): 3.7 A280

Compound: CC[C@H](C)[C@H](N)C1=N[C@H](C(=O)N[C@@H](CC(C)C)C(=O)N[C@H](CCC(=O)O)C(=O)N[C@H](C(=O)N[C@H]2CCCCNC(=O)[C@H](CC(N)=O)NC(=O)[C@@H](CC(=O)O)NC(=O)[C@H](Cc3cnc[nH]3)NC(=O)[C@@H](Cc3ccccc3)NC(=O)[C@H]([C@@H](C)CC)NC(=O)[C@@H](CCCN)NC2=O)[C@@H](C)CC)CS1 [Bacitracin] ({Ileψ(thiazoline)Cys}-L[dE]IK[dOrn]I[dF]H[dD]N; lactam 4-C)
- MIC ([1]; Table 25): 25 µg/mL (≈ 17.6 µM)
- MBC ([1]; Table 25, read-out: MBC): 50 µg/mL (≈ 35.1 µM)

Compound: CC(C)C[C@H](NC(=O)[C@H](C)N)C(=O)N[C@@H](Cc1ccc(O)cc1)C(=O)N[C@@H](CCCCN)C(=O)N[C@@H](CCCCN)C(=O)N[C@@H](CC(C)C)C(=O)N[C@@H](CC(C)C)C(=O)N[C@@H](CCCCN)C(=O)N[C@@H](CCCCN)C(=O)N[C@@H](CC(C)C)C(=O)N[C@@H](CC(C)C)C(=O)N[C@@H](CCCCN)C(=O)N[C@@H](CO)C(=O)N[C@@H](C)C(=O)N[C@@H](CCCCN)C(=O)N[C@@H](CCCCN)C(=O)N[C@@H](CC(C)C)C(=O)NCC(=O)N[C@@H](CSC1CC(=O)N(c2ccc3c(c2)C(=O)OC32c3ccc(O)cc3Oc3cc(O)ccc32)C1=O)C(N)=O (stereo partly drawn) [C19G-Mal-FL] (H-ALYKKLLKKLLKSAKKLGC(Fluorescein(5-Mal))-NH2; N-terminus assumed)
- MIC (E. coli H16 [2]): 10 µg/mL (≈ 3.89 µM)
- % Macrophage with phagocytosed bacteria ([3]; Table 61 (repeat assay), 1×10^8 J5 bacteria opsonized, from 100 macrophage examined, conjugates 0.5 ug/ml, anti-avidin 1/400, anti-fluorescein antibody 14 ug/ml): 8%
- enhancement of phagocytosis (in words) ([3]; with anti-fluorescein antibody): prevents the C19g-Mal-FL conjugate from enhancing bacterial phagocytosis

Compound: CCN1C(=O)CC(SC[C@H](NC(=O)CNC(=O)[C@H](CC(C)C)NC(=O)[C@H](CCCCN)NC(=O)[C@H](CCCCN)NC(=O)[C@H](C)NC(=O)[C@H](CO)NC(=O)[C@H](CCCCN)NC(=O)[C@H](CC(C)C)NC(=O)[C@H](CC(C)C)NC(=O)[C@H](CCCCN)NC(=O)[C@H](CCCCN)NC(=O)[C@H](CC(C)C)NC(=O)[C@H](CC(C)C)NC(=O)[C@H](CCCCN)NC(=O)[C@H](CCCCN)NC(=O)[C@H](Cc2ccc(O)cc2)NC(=O)[C@H](CC(C)C)NC(=O)[C@H](C)N)C(N)=O)C1=O (stereo partly drawn) [C19G-NEM] (H-ALYKKLLKKLLKSAKKLGC(Succinimide(1-Et,3-yl))-NH2; N-terminus assumed)
- BDA (E. coli H16 [4]): 2.5 to 5 µg/mL
- MIC (E. coli 0111:B4; 0111:B4): 6 µg/mL (≈ 2.64 µM)
- MIC (E. coli H16 [2]): 10 µg/mL (≈ 4.4 µM)
- MIC (Salmonella 34576): 6 µg/mL (≈ 2.64 µM)

Compound: CC(C)C[C@H](NC(=O)[C@H](Cc1ccccc1)NC(=O)[C@H](CCCNC(=N)N)NC(=O)[C@H](CCCCN)NC(=O)[C@H](CCC(N)=O)NC(=O)[C@H](C)NC(=O)[C@H](CCCCN)NC(=O)[C@H](Cc1c[nH]c2ccccc12)NC(=O)[C@H](CCCCN)NC(=O)[C@@H](N)CS)C(=O)N[C@@H](CCCCN)C(=O)O [C90-99, cys-lys-trp-lys-ala-gln-lys-arg-phe-leu-lys, reference compound]
- MIC (E. coli HB101; HB101): >75 µg/mL
- MIC (E. coli 0111:B4; 0111:B4): >75 µg/mL

Compound: O=C(Nc1ccc(O[C@H]2O[C@H](CO)[C@@H](O)[C@H](O)[C@@H]2O)cc1)c1ccccc1 [N-benzoyl derivative, 4-Benzamidophenyl-α-D-mannopyranoside]
- activity relative to methyl α-mannopyranoside (type I pili): 1000 fold

Compound: O=C(ON1C(=O)CC(S(=O)(=O)O)C1=O)c1cccc(N2C(=O)C=CC2=O)c1 (stereo not drawn) [Sulfo-MBS, m-Maleimidobenzoyl-N-hydroxysulfosuccinimide ester]
- activity against S. aureus (in words) (S. aureus): inactive

Compound: OCCS [beta-mercaptoethanol]
- activity against S. aureus (in words) (S. aureus): inactive

Compound: NCCO [ethanolamine]
- activity against S. aureus (in words) (S. aureus): inactive

Compound: CC1(C)S[C@@H]2[C@H](N)C(=O)N2[C@H]1C(=O)O [native aminopenicillanic acid, 6-aminopenicillanic acid]
- MIC (S. aureus; Staphylococcus aureus, read-out: MIC): 250 µg/mL (≈ 1160 µM)

Compound: CC1(C)S[C@@H]2[C@H](NC(=O)[C@H](N)c3ccc(O)cc3)C(=O)N2[C@H]1C(=O)O [native amoxicillin, amoxicillin]
- MIC (S. aureus): 250 µg/mL (≈ 684 µM)

Compound: CC1=C(C(=O)O)N2C(=O)[C@@H](NC(=O)[C@H](N)c3ccc(O)cc3)[C@H]2SC1 [native cefadroxil, cefadroxil]
- MIC (S. aureus; [5]): 0.028 A280

Compound: Cysteinyl-PMB [PMB-Cys]
- MIC (E. coli 0111:B4; [6]): 0.7 µg/mL
- MIC (E. coli 0111:B4; Table 41): 0.8 to 1 µg/mL
- antibiotic activity (in words) (E. coli): Active

Compound: Imminothiolated PMB [PMB-Traut's]
- loss of anti-bacterial activity relative to PMB (E. coli HB101): 40-80 fold
- MIC (E. coli HB101; Table 41): 4 µg/mL

Compound: Lysyl S-Succinamidyl (Fluorescein) PMB [PMB-Lys-FL]
- MIC (E. coli 0111:B4; [6]): 1 µg/mL

Compound: Lysyl-PMB [PMB-Lys]
- MIC (E. coli 0111:B4; [6]): 2.0 µg/mL
- MIC (E. coli 0111:B4; Table 41): 2 µg/mL
- antibiotic activity (in words) (E. coli): Active

Compound: Monoalanyl PMB [PMB-Ala]
- MIC (E. coli 0111:B4; [6]): 0.7 µg/mL
- MIC (E. coli 0111:B4; Table 41): 0.8 to 2 µg/mL
- antibiotic activity (in words) (E. coli): Active

Compound: PMB-NHCOCH2SCOCH3 [PMB-SATA]
- loss of anti-bacterial activity relative to PMB (E. coli HB101): about 10 fold
- MIC (E. coli HB101; Table 41): 0.6 µg/mL
- antibiotic activity (in words) (E. coli): Less Active

Compound: PMB-S-Mercaptosuccinyl-succinimidyl-fluorescein [PMB-SAMSA-Mal-FL]
- MIC (E. coli 0111:B4; [6]): 10 µg/mL
- MIC (E. coli 0111:B4; Table 44): 4 to 20 µg/mL

Compound: Polymyxin B-fluoroscein [PMB-NHS-FL]
- loss of anti-bacterial activity relative to PMB (E. coli HB101): 10-20 fold
- MIC (E. coli HB101; Table 44): 0.8 to 1 µg/mL

Compound: S-(Acetomidomethyl)-t-butoxycarbonylcysteinyl PMB [PMB-Boc-Cys (ACM)]
- MIC (E. coli 0111:B4; [6]): 6.0 µg/mL
- MIC (E. coli 0111:B4; Table 41): 5 µg/mL

Compound: S-(Acetomidomethyl)cysteinyl PMB [PMB-Cys (ACM)]
- MIC (E. coli 0111:B4; [6]): 1.2 µg/mL
- MIC (E. coli 0111:B4; Table 41): 5 µg/mL

Compound: S-Acetylmercaptosuccinyl PMB [PMB-SAMSA]
- loss of anti-bacterial activity relative to PMB (E. coli HB101): 10-30 fold
- MIC (E. coli HB101; Table 41): 0.5 to 3 µg/mL
- MIC (E. coli 0111:B4; [6]): 3.1 µg/mL
- MIC (E. coli 0111:B4; Table 41): 3 µg/mL

Compound: S-hydroxyethylthio maleimidomethyl cyclohexane carboxyl-N-cefadroxil ester
- MIC (S. aureus; [5]): 1.6 A280

Compound: S-hydroxyethylthio-maleimidobenzoyl-N-aminocephalosporanic acid ester
- MIC (S. aureus; [5]): 0.86 A280

Compound: ala-leu-tyr-lys-lys-leu-leu-lys-lys-leu-leu-lys-ser-ala-lys-lys-leu-gly-cys-amide [C19G]
- lower activity than C18G (E. coli H16 [4]): about 5 fold
- BDA (E. coli H16 [4]): 25 to 50 µg/mL

Compound: t-butoxycarbonyl-alanine-polymyxin B [PMB-BOC-Ala]
- MIC (E. coli 0111:B4; Table 41): 2 µg/mL

Compound: α,ε-di-t-Butoxycarbonyl-lysyl-PMB [α,ε-di-t-butoxycarbonyl lysyl derivative]
- antibiotic activity (in words) (E. coli): significantly less active

Compound: α-Boc-ε{flourescein) thiocarbamoyl}-lysyl PMB [PMB-Boc-Lys-FL]
- MIC (E. coli 0111:B4; [6]): 12.5 µg/mL

Reference: patent publication US6579696B1, “Polymyxin B conjugates” (priority 1992, dated 2003)
